{"source": "paper PMC11314561", "about": "“Design and Synthesis of Novel Aminoindazole-pyrrolo[2,3-b]pyridine Inhibitors of IKKα That Selectively Perturb Cellular Non-Canonical NF-κB Signalling” (Molecules, 2024)", "assay_in_all_cases": "kinase panel", "format_in_all_cases": "biochemical", "key": {"Fms(h)": {"target": "Fms(h) (Homo sapiens, UniProt P07333)", "sequence (P07333 20-972)": "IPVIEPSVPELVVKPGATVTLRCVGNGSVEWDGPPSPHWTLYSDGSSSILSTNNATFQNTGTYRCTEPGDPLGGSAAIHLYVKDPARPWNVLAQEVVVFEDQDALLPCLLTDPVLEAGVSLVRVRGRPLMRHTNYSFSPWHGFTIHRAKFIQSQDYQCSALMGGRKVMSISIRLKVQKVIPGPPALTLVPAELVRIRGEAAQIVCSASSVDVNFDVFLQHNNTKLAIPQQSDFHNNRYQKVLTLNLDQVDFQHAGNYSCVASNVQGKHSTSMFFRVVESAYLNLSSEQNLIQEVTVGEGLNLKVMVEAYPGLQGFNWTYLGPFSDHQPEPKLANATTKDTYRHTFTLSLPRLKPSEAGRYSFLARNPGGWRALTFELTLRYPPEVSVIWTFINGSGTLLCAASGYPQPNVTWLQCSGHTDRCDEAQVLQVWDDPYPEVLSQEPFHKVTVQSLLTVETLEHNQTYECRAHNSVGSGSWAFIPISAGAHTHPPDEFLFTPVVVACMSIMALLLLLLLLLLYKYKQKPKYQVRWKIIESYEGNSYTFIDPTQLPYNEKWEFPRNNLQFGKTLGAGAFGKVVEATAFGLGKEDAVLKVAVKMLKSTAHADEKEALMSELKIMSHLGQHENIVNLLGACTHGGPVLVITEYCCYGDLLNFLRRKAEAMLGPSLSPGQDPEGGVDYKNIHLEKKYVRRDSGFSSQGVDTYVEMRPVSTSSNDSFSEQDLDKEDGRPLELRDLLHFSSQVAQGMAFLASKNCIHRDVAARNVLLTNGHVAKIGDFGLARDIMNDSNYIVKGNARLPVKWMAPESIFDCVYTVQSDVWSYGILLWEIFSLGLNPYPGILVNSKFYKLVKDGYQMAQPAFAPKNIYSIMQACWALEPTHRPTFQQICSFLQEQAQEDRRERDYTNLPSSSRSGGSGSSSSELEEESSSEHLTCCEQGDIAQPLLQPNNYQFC", "method_in_brief": "(§1)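 Values are percent inhibition from kinome-wide profiling of three series compounds across 231 kinases, with a structurally similar analogue tested on only 98 selected kinases.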"}, "CaMKIIβ(h)": {"target": "CaMKIIβ(h) (Homo sapiens, UniProt Q13554)", "method_in_brief": "as §1"}, "MKK7β(h)": {"target": "T1, MKK7β(h) (Homo sapiens, UniProt O14733)", "T1 sequence (O14733 1-419)": "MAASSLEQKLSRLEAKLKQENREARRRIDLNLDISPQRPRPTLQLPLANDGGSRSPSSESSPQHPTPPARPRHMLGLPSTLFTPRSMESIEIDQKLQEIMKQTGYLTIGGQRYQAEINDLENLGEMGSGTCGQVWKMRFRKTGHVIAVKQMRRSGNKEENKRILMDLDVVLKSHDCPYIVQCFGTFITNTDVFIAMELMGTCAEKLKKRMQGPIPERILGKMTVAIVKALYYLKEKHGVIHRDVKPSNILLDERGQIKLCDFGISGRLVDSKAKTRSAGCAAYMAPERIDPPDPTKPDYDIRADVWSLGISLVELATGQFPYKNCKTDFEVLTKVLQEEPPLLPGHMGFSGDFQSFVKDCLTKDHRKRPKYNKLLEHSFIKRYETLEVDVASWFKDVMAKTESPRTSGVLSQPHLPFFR", "method_in_brief": "as §1"}, "CaMKIIγ(h)": {"target": "CaMKIIγ(h) (Homo sapiens, UniProt Q13555)", "sequence (Q13555 whole entry)": "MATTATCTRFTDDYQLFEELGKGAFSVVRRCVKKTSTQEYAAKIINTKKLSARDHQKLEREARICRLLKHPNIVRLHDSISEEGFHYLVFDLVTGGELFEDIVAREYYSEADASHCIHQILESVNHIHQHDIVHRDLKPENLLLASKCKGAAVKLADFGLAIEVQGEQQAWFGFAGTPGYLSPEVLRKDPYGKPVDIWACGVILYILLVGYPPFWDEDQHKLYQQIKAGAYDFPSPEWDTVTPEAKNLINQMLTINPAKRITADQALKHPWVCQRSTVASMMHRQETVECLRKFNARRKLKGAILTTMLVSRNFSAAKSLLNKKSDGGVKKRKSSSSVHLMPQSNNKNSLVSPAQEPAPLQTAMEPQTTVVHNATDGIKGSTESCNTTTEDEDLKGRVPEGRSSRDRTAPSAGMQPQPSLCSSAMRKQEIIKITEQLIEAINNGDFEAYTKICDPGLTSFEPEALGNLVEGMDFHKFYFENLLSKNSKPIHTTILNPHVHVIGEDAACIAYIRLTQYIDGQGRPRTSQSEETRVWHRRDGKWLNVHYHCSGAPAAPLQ", "method_in_brief": "as §1"}, "Arg(h)": {"target": "Arg(h) (Homo sapiens, UniProt P42684)", "method_in_brief": "as §1"}, "Met(h)": {"target": "Met(h) (Homo sapiens, UniProt P08581)", "sequence (P08581 25-1390)": "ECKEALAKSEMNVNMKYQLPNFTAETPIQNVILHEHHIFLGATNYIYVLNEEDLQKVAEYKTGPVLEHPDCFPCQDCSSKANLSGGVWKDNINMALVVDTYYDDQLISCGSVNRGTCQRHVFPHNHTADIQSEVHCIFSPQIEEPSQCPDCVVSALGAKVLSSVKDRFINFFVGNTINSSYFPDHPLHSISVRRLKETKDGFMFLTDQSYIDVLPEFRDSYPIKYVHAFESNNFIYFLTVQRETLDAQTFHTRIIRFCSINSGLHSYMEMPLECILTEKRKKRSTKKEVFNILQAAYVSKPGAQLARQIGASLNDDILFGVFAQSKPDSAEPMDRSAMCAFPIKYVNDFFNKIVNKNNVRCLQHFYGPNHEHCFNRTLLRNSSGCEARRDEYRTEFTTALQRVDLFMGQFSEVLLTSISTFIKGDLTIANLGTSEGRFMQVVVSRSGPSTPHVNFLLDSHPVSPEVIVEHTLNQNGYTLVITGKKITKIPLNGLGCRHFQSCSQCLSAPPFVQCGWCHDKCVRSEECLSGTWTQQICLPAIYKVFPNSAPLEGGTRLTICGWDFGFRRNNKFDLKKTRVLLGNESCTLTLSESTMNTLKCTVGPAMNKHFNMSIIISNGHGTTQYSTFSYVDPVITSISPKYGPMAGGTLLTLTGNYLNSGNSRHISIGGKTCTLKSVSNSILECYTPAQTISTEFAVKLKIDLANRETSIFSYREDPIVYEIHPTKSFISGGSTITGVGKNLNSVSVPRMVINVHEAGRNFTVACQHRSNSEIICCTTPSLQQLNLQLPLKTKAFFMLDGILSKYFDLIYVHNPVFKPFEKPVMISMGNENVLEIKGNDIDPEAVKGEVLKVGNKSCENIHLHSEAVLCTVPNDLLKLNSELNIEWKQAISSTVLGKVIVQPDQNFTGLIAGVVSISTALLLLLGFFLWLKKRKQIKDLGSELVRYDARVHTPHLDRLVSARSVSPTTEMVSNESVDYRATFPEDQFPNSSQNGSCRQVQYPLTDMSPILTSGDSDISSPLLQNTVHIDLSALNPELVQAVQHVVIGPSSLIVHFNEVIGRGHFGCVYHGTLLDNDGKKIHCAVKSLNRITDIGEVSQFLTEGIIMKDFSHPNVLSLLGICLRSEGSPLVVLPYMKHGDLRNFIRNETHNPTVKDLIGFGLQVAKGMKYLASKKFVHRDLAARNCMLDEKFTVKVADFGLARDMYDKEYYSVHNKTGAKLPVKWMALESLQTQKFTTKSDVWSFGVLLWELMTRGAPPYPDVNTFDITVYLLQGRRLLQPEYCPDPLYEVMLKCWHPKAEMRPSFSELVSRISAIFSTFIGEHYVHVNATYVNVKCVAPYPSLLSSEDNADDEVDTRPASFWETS", "method_in_brief": "as §1"}, "CK2(h)": {"target": "CK2(h) (Homo sapiens, UniProt P68400)", "sequence (P68400 whole entry)": "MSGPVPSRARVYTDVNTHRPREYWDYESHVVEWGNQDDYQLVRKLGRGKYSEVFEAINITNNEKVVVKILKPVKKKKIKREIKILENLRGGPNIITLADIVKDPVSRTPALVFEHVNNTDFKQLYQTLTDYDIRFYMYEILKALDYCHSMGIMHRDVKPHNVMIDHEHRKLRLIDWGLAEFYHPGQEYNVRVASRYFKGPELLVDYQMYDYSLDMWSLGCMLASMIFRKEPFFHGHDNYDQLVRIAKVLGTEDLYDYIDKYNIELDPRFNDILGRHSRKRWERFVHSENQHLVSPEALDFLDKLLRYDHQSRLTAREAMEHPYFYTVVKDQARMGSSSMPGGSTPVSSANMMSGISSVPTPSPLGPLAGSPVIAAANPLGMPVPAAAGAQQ", "sequence (P67870 whole entry partner)": "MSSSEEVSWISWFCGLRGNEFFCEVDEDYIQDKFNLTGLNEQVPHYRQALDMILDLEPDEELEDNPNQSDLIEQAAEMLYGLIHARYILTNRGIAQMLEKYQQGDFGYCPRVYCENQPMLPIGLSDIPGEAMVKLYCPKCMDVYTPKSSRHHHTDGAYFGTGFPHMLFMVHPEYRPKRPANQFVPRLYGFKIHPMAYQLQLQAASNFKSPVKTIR", "method_in_brief": "as §1"}, "GSK3β(h)": {"target": "GSK3β(h) (Homo sapiens, UniProt P49841)", "sequence (P49841 whole entry)": "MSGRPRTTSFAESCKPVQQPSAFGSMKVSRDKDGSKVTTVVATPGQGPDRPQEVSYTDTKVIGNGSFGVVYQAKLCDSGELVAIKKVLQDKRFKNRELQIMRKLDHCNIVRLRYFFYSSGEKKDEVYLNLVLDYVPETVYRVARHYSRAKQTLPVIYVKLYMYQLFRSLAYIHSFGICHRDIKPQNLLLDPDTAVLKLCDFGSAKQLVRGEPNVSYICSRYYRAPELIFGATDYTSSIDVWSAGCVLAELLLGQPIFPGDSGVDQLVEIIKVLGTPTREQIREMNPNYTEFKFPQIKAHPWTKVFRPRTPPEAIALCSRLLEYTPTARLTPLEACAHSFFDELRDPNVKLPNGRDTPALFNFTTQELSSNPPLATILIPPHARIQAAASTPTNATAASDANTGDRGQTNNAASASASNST", "method_in_brief": "as §1"}, "Abl(h)": {"target": "Abl(h) (Homo sapiens, UniProt P00519)", "method_in_brief": "as §1"}, "CDK7/cyclinH/MAT1(h)": {"target": "CDK7/cyclinH/MAT1(h) (Homo sapiens, UniProt P50613)", "method_in_brief": "as §1"}, "ALK(h)": {"target": "ALK(h) (Homo sapiens, UniProt Q9UM73)", "method_in_brief": "as §1"}, "FGFR1(h)": {"target": "FGFR1(h) (Homo sapiens, UniProt P11362)", "method_in_brief": "as §1"}, "ZIPK(h)": {"target": "ZIPK(h) (Homo sapiens, UniProt O43293)", "sequence (O43293 whole entry)": "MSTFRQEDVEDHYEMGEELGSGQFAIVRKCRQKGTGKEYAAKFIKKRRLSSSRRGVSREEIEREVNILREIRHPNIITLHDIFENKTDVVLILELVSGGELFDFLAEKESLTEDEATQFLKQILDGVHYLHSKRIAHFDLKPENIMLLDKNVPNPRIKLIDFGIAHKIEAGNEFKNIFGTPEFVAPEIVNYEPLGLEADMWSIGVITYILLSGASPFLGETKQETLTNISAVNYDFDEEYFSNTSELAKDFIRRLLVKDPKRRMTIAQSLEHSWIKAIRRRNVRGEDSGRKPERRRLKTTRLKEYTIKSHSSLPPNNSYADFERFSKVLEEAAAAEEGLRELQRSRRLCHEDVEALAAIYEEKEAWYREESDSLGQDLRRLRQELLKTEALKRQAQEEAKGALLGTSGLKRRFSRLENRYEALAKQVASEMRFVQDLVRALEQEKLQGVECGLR", "method_in_brief": "as §1"}, "CDK9/cyclin T1(h)": {"target": "CDK9/cyclin T1(h) (Homo sapiens, UniProt P50750)", "method_in_brief": "as §1"}, "LIMK1(h)": {"target": "LIMK1(h) (Homo sapiens, UniProt P53667)", "sequence (P53667 whole entry)": "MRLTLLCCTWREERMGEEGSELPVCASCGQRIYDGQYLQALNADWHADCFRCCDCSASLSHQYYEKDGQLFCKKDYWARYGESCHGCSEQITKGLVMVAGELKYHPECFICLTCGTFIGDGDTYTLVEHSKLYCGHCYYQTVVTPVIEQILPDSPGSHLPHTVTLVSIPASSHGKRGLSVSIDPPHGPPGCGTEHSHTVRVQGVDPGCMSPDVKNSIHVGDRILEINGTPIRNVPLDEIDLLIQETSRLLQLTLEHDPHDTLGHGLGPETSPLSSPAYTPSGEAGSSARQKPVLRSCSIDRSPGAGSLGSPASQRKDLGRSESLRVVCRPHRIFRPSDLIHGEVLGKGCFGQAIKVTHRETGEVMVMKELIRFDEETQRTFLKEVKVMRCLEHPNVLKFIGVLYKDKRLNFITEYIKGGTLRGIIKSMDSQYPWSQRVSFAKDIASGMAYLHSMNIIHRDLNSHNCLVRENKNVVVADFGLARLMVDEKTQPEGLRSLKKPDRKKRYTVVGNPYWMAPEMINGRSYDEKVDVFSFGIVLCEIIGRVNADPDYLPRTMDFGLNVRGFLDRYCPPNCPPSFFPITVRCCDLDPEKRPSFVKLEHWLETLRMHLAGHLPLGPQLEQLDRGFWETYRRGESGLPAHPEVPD", "method_in_brief": "as §1"}, "TAK1(h)": {"target": "T2, TAK1(h) (Homo sapiens, UniProt O43318)", "T2 sequence (O43318 1-303 limits assumed)": "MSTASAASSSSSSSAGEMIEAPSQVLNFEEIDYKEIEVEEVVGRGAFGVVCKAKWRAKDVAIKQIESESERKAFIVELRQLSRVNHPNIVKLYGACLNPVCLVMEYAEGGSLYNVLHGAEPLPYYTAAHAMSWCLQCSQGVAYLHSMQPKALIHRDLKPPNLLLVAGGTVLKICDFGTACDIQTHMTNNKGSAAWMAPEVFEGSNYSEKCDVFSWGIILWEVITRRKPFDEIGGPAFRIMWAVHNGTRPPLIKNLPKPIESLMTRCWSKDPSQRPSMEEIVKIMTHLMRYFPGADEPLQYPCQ", "method_in_brief": "as §1"}, "DYRK2(h)": {"target": "T3, DYRK2(h) (Homo sapiens, UniProt Q92630)", "T3 sequence (Q92630 1-601)": "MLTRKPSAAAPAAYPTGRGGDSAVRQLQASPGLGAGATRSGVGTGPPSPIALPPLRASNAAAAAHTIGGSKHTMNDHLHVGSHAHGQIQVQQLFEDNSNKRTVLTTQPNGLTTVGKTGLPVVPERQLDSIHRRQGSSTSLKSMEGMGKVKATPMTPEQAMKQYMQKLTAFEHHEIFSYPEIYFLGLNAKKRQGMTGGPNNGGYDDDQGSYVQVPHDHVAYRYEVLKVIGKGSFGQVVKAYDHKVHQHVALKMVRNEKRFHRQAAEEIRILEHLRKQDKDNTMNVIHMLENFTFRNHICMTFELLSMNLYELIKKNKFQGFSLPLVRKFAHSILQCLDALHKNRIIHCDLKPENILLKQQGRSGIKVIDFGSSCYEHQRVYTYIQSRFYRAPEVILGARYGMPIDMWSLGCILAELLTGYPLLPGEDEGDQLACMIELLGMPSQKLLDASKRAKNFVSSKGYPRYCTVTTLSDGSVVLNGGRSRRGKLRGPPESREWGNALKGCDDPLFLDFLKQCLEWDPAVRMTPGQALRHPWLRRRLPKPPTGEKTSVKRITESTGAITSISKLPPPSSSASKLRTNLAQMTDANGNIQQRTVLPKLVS", "method_in_brief": "as §1"}, "Lck(h)": {"target": "Lck(h) (Homo sapiens, UniProt P06239)", "method_in_brief": "as §1"}, "ROCK-II(h)": {"target": "ROCK-II(h) (Homo sapiens, UniProt O75116)", "method_in_brief": "as §1"}}, "data": [{"smiles": "Nc1n[nH]c2ccc(-c3ccnc4[nH]c(-c5ccccc5)cc34)cc12", "note": "[Compound 4]", "values": [{"measurement": "inhibition at 1 µM", "setting": "Fms(h)", "result": 91, "unit": "%"}, {"measurement": "inhibition at 1 µM", "setting": "CaMKIIβ(h)", "result": 74, "unit": "%"}, {"measurement": "inhibition at 1 µM", "setting": "MKK7β(h)", "result": 80, "unit": "%"}, {"measurement": "inhibition at 1 µM", "setting": "CaMKIIγ(h)", "result": 93, "unit": "%"}, {"measurement": "inhibition at 1 µM", "setting": "Arg(h)", "result": 96, "unit": "%"}, {"measurement": "inhibition at 1 µM", "setting": "Met(h)", "result": 61, "unit": "%"}, {"measurement": "inhibition at 1 µM", "setting": "CK2(h)", "result": -7, "unit": "%"}, {"measurement": "inhibition at 1 µM", "setting": "GSK3β(h)", "result": 92, "unit": "%"}, {"measurement": "inhibition at 1 µM", "setting": "Abl(h)", "result": 86, "unit": "%"}, {"measurement": "inhibition at 1 µM", "setting": "CDK7/cyclinH/MAT1(h)", "result": 85, "unit": "%"}, {"measurement": "inhibition at 1 µM", "setting": "ALK(h)", "result": 56, "unit": "%"}, {"measurement": "inhibition at 1 µM", "setting": "FGFR1(h)", "result": 84, "unit": "%"}, {"measurement": "inhibition at 1 µM", "setting": "ZIPK(h)", "result": -7, "unit": "%"}, {"measurement": "inhibition at 1 µM", "setting": "CDK9/cyclin T1(h)", "result": 98, "unit": "%"}, {"measurement": "inhibition at 1 µM", "setting": "LIMK1(h)", "result": 58, "unit": "%"}, {"measurement": "inhibition at 1 µM", "setting": "TAK1(h)", "result": 28, "unit": "%"}, {"measurement": "inhibition at 1 µM", "setting": "DYRK2(h)", "result": 43, "unit": "%"}, {"measurement": "inhibition at 1 µM", "setting": "Lck(h)", "result": 48, "unit": "%"}, {"measurement": "inhibition at 1 µM", "setting": "ROCK-II(h)", "result": 89, "unit": "%"}]}, {"smiles": "Nc1n[nH]c2ccc(-c3ccnc4[nH]c(-c5cccc(OCc6ccccc6)c5)cc34)cc12", "note": "[Compound 5r [SU1261]]", "values": [{"measurement": "inhibition at 1 µM", "setting": "Fms(h)", "result": 58, "unit": "%"}, {"measurement": "inhibition at 1 µM", "setting": "CaMKIIβ(h)", "result": 47, "unit": "%"}, {"measurement": "inhibition at 1 µM", "setting": "MKK7β(h)", "result": 99, "unit": "%"}, {"measurement": "inhibition at 1 µM", "setting": "CaMKIIγ(h)", "result": 84, "unit": "%"}, {"measurement": "inhibition at 1 µM", "setting": "Arg(h)", "result": 76, "unit": "%"}, {"measurement": "inhibition at 1 µM", "setting": "Met(h)", "result": 14, "unit": "%"}, {"measurement": "inhibition at 1 µM", "setting": "CK2(h)", "result": -5, "unit": "%"}, {"measurement": "inhibition at 1 µM", "setting": "GSK3β(h)", "result": 57, "unit": "%"}, {"measurement": "inhibition at 1 µM", "setting": "Abl(h)", "result": 44, "unit": "%"}, {"measurement": "inhibition at 1 µM", "setting": "CDK7/cyclinH/MAT1(h)", "result": 37, "unit": "%"}, {"measurement": "inhibition at 1 µM", "setting": "ALK(h)", "result": 27, "unit": "%"}, {"measurement": "inhibition at 1 µM", "setting": "FGFR1(h)", "result": 64, "unit": "%"}, {"measurement": "inhibition at 1 µM", "setting": "ZIPK(h)", "result": 0, "unit": "%"}, {"measurement": "inhibition at 1 µM", "setting": "CDK9/cyclin T1(h)", "result": 98, "unit": "%"}, {"measurement": "inhibition at 1 µM", "setting": "LIMK1(h)", "result": 21, "unit": "%"}, {"measurement": "inhibition at 1 µM", "setting": "TAK1(h)", "result": 6, "unit": "%"}, {"measurement": "inhibition at 1 µM", "setting": "DYRK2(h)", "result": 14, "unit": "%"}, {"measurement": "inhibition at 1 µM", "setting": "Lck(h)", "result": 34, "unit": "%"}, {"measurement": "inhibition at 1 µM", "setting": "ROCK-II(h)", "result": 58, "unit": "%"}]}, {"smiles": "Nc1n[nH]c2ccc(-c3ccnc4[nH]c(-c5ccnc(OCc6ccccc6)c5)cc34)cc12", "note": "[Compound 6g [SU1349]]", "values": [{"measurement": "inhibition at 1 µM", "setting": "Fms(h)", "result": 10, "unit": "%"}, {"measurement": "inhibition at 1 µM", "setting": "CaMKIIβ(h)", "result": 12, "unit": "%"}, {"measurement": "inhibition at 1 µM", "setting": "MKK7β(h)", "result": 11, "unit": "%"}, {"measurement": "inhibition at 1 µM", "setting": "CaMKIIγ(h)", "result": 46, "unit": "%"}, {"measurement": "inhibition at 1 µM", "setting": "Arg(h)", "result": 24, "unit": "%"}, {"measurement": "inhibition at 1 µM", "setting": "Met(h)", "result": -3, "unit": "%"}, {"measurement": "inhibition at 1 µM", "setting": "CK2(h)", "result": 2, "unit": "%"}, {"measurement": "inhibition at 1 µM", "setting": "GSK3β(h)", "result": 5, "unit": "%"}, {"measurement": "inhibition at 1 µM", "setting": "Abl(h)", "result": 15, "unit": "%"}, {"measurement": "inhibition at 1 µM", "setting": "CDK7/cyclinH/MAT1(h)", "result": 14, "unit": "%"}, {"measurement": "inhibition at 1 µM", "setting": "ALK(h)", "result": 5, "unit": "%"}, {"measurement": "inhibition at 1 µM", "setting": "FGFR1(h)", "result": -4, "unit": "%"}, {"measurement": "inhibition at 1 µM", "setting": "ZIPK(h)", "result": 1, "unit": "%"}, {"measurement": "inhibition at 1 µM", "setting": "CDK9/cyclin T1(h)", "result": 99, "unit": "%"}, {"measurement": "inhibition at 1 µM", "setting": "LIMK1(h)", "result": 15, "unit": "%"}, {"measurement": "inhibition at 1 µM", "setting": "TAK1(h)", "result": 0, "unit": "%"}, {"measurement": "inhibition at 1 µM", "setting": "DYRK2(h)", "result": 9, "unit": "%"}, {"measurement": "inhibition at 1 µM", "setting": "Lck(h)", "result": -19, "unit": "%"}, {"measurement": "inhibition at 1 µM", "setting": "ROCK-II(h)", "result": 25, "unit": "%"}]}]}
